According to patent US20180193372A1, “NOVEL BIOMARKER FOR DIAGNOSING RESISTANCE TO ANTICANCER AGENT FOR BILLARY TRACT CANCER AND USE THEREOF” (COWELL BIODIGM CO., LTD., priority 2015, published 2018):

What was measured:
[1] = test system: SNU1196/GR cells; experiment: MTT assay of anticancer agent susceptibility after inhibiting TAGLN2 expression; format: cell-based, human; conditions: for change in susceptibility to anticancer agent when TAGLN2 expression was inhibited: TAGLN2 siRNA transfection
Procedure: As siRNA for TAGLN2, sc-106633 produced by Santa Cruz Biotechnology was used, and as control siRNA, sc-37007 (Santa Cruz Biotechnology) was used. An anticancer agent (gemcitabine)-resistant biliary tract cancer cell line SNU1196/GR was transfected with each of control siRNA and TAGLN2 siRNA using a lipofectamine RNAiMAX transfection reagent (Invitrogen), and after 24 hours, was cultured for 72 hours by treating with gemcitabine at various concentrations. The cell line reacted with an MTT solution (Sigma-Aldrich) for 3 hours, and then absorbance at 570 nm was measured by treating with DMSO to determine whether the anticancer agent resistance was overcome through inhibition of TAGLN2 expression in the anticancer agent-resistant biliary tract cancer cell line. The inhibition of the expression by TAGLN2 siRNA was confirmed by western blotting after 72 hours of the transfection.

[2] = test system: SNU1196/P cells; experiment: MTT assay with gemcitabine, parent cell line; format: cell-based; conditions: Homo sapiens, 10 nM stated to be lower than the IC50, read-out: IC50 concentration of parent cell line
Procedure: (§1) To create an anticancer agent-resistant biliary tract cancer cell line, a SNU1196 cell line was treated with gemcitabine at various concentrations and then subjected to MTT assay to calculate an IC50 value, and the cells were treated with gemcitabine at a concentration of IC50 for 3 days. After 3 days, when the cells were recovered after being cultured in a drug-free growth medium [10% fetal bovine serum (FBS; Hyclone)-containing RPMI1640 (Invitrogen Gibco)], the cells were recovered by treating with gemcitabine at double the IC50 concentration for 3 days, and an anticancer agent-resistant cell line (named SNU1196/GR) was established by repeating such a cell culturing procedure for 1 year. Whether the resistance to the anticancer agent was acquired was confirmed by MTT assay.
Cells derived from biliary tract cancer cell line SNU1196 and anticancer agent-resistant biliary tract cancer cell line SNU1196/GR were attached to 96-well plates at 3×10^3 cells/well, and the following day, the cells were cultured for 72 hours by treating with gemcitabine at various concentrations. […] After 3 hours, the MTT solution was removed, and then absorbance was measured at 570 nm by adding dimethyl sulfoxide (DMSO) at 100 μl/well.

[3] = test system: SNU1196/GR cells; experiment: MTT assay confirming resistance to anticancer agent (gemcitabine), resistant line; format: cell-based, human; conditions: SNU1196/GR vs SNU1196/P, 72 hours
Procedure: as §1, with “assay. Cells derived from biliary tract cancer cell line SNU1196 and anticancer agent-resistant biliary tract cancer cell line SNU1196/GR were attached to 96-well plates at 3×10^3 cells/well, and the following day, the cells were cultured for 72 hours by treating with gemcitabine at various concentrations. […] After 3 hours, the MTT solution was removed, and then absorbance was measured at 570 nm by adding dimethyl sulfoxide (DMSO) at 100 μl/well.” for “assay.”

Compound	change in susceptibility to anticancer agent when TAGLN2 expression was inhibited [1]	other results
N.N.[Cl][Pt][Cl] [cisplatin]	increased	–
C#Cc1cccc(Nc2ncnc3cc(OCCOC)c(OCCOC)cc23)c1 [erlotinib]	did not cause changes	–
Nc1ccn([C@@H]2O[C@H](CO)[C@@H](O)C2(F)F)c(=O)n1 [gemcitabine]	–	IC50 [2]: > 0.01 µM; IC50 value of SNU1196/GR cells for gemcitabine relative to parent cell line [3]: 100 times; increase of anticancer agent susceptibility ([1]; co-treatment with TAGLN2 siRNA, gemcitabine 10 nM): 43%
COc1cc([C@@H]2c3cc4c(cc3[C@@H](O[C@@H]3O[C@@H]5CO[C@@H](C)O[C@H]5[C@H](O)[C@H]3O)[C@H]3COC(=O)[C@H]23)OCO4)cc(OC)c1O [etoposide]	did not cause changes	–
O=c1[nH]cc(F)c(=O)[nH]1 [5-FU, 5-fluorourasil]	increased	–
O=C1[O][Pt]2([NH][C@@H]3CCCC[C@H]3[NH]2)[O]C1=O [oxaliplatin]	increased	–
CCc1c2c(nc3ccc(OC(=O)N4CCC(N5CCCCC5)CC4)cc13)-c1cc3c(c(=O)n1C2)COC(=O)[C@]3(O)CC [irinotecan]	did not cause changes	–
N.N.O=C([O-])C1(C(=O)[O-])CCC1.[Pt+2] [carboplatin]	increased	–
